# Test results reported in publication PMC10708475, “HPLC-DAD-MS Characterization, Antioxidant Activity, α-amylase Inhibition, Molecular Docking, and ADMET of Flavonoids from Fenugreek Seeds” (Molecules, 2023).
# Assays:
# [1] = Ferric-reducing antioxidant power (FRAP) assay; conditions: concentration indicating 0.50 absorbance, 700 nm; maximum tested 200 µg/mL
# Description: The ferric-reducing antioxidant power (FRAP) assay was carried out according to [119]. The reaction mixture contained 10 μL of the extracts, 40 µL phosphate buffer (pH 6.6), and 50 μL potassium ferricyanide K3[Fe (CN)6] (1%), was incubated at 50 °C for 20 min, then 50 µL of trichloroacetic acid (TCA) (10%) and 40 µL of distilled water and 10 µL of ferric chloride FeCl3 (0.1%) were added. Then, the absorbance was measured at 700 nm using a microplate reader of type PerkinElmer (Enspire) against a blank. Tannic acid, α-tocopherol, and ascorbic acid were used as references.
# The results of the tests carried out are expressed as an average ± SD of analyses in three tests. […] The one-way analysis of variance ANOVA was used to detect significant differences (p < 0.05).
# [2] = DPPH radical scavenging assay; conditions: 30 min, 517 nm
# Description: The ability of radical scavenging was determined according to [118], using the radical DPPH• (2,2-diphenyl-1-picrylhydrazyl). 160 µL of DPPH solution (0.15 mM) was added to 40 µL of the diluted extracts in methanol and incubated in the dark. After 30 min of incubation, the absorbances were measured at 517 nm by a microplate reader of type PerkinElmer (Enspire) against a blank. BHA, BHT, and α-tocopherol were used as reference antioxidants. DPPH inhibition percentage was calculated using the following equation:(3) Inhibition(%)=A0−As/A0×100 where A0 is the absorbance of the control (without the sample) and As is the absorbance of the tested samples. The antioxidant activity of the extracts and standards was expressed as IC50 (the concentration of the tested samples that inhibits 50% of DPPH radicals).
# (§1) The results of the tests carried out are expressed as an average ± SD of analyses in three tests. The values of IC50 (50% inhibition concentration) and A0.5 (the concentration indicating 0.50 absorbance) are calculated using the linear regression method from the two curves: [% inhibition = f (concentration)] for IC50 and [Absorbance = f (concentration)] for A0.5. All the antioxidant and enzymatic tests were carried out at more than four concentration values. The one-way analysis of variance ANOVA was used to detect significant differences (p < 0.05).
# [3] = ABTS+ scavenging activity; conditions: 10 min, 734 nm
# Description: The ABTS•+ assay (2, 2′-azino-bis (3-ethylbenzthiazoline-6-sulfonic acid)) was carried out according to the method with some modifications. The ABTS+ reagent was prepared as follows: 19.2 mg of ABTS (7 mM) in 5 mL distilled water was mixed with 3.3 mg of Potassium persulfate K2S2O8 (2.45 mM) in 5 mL distilled water, and the mixture was incubated for 16 h in the dark before use. We have added 160 µL of ABTS+ reagent to 40 μL of extract solutions. After 10 min of incubation, the absorbance was read at 734 nm using a microplate reader of type PerkinElmer (Enspire). BHA and BHT were used as references. The total antioxidant activity of the extracts was calculated as follows:(4) ABTS^+scavenging effect (%)=AControl−ASample/AControl×100
# as §1
Molecule,FRAP A0.5 [1] [µg/mL],DPPH Inhibition IC50 [2] [µg/mL],ABTS Inhibition IC50 [3] [µg/mL]
O=C1O[C@H]([C@@H](O)CO)C(O)=C1O [Ascorbic acid],6.77 ± 1.15,–,–
"COc1ccc(O)c(C(C)(C)C)c1 [BHA, Butylated hydroxyanisole]",–,6.14 ± 0.41,1.81 ± 0.10
"Cc1cc(C(C)(C)C)c(O)c(C(C)(C)C)c1 [BHT, hydroxytoluene]",–,12.99 ± 0.41,1.29 ± 0.30
Tannic acid,5.39 ± 0.91,–,–
